Assay results: patent US10301288B2, “Kinase inhibitors” (Topivert Pharma Limited, priority 2013, dated 2019)
Where two headings read alike, the source gives them in different places.

Tests used:
d-U937 cells = test: (a) LPS-induced TNFα/IL-8 release in d-U937 cells; assay type: cell-based; conditions: Homo sapiens, dU937 cells
Procedure: U937 cells, a human monocytic cell line, are differentiated into macrophage-type cells by incubation with PMA (100 ng/mL) for 48 to 72 hr. Cells are pre-incubated with final concentrations of test compound for 2 hr and are then stimulated with LPS (0.1 μg/mL; from E. Coli: O111:B4, Sigma) for 4 hr. The supernatant is collected for determination of TNFα and IL-8 concentrations by sandwich ELISA (Duo-set, R&D systems). […] The relative 50% effective concentration (REC50) is determined from the resultant concentration-response curve. The inhibition of IL-8 production is calculated at each concentration of test compound by comparison with vehicle control.

[1] = Pharmacokinetics and colon distribution in rats; assay type: in vivo, male Wistar rats; conditions: for concentration at 0.5 h: time cell blank (0.5 hr per method)
Procedure: 30 male Wistar rats were divided into two groups: Group I (p.o.: 5 mg/kg) and Group II (i.v.: 0.25 mg/kg). […] From each rat, blood samples (approximately 120 μL) were collected from retro orbital plexus such that samples were obtained at pre-dose, 0.05, 0.13, 0.25, 0.5, 1, 2, 4, 8, and 24 hr (i.v.) and pre-dose, 0.5, 1, 2, 4, 6, 8, 12 and 24 hr (p.o.). Immediately after collection, plasma was harvested from blood by centrifugation and stored at −70° C. until analysis. Following collection of blood sample, the animals (Group I) were humanely euthanized by carbon dioxide asphyxiation. The total colon was isolated, flushed with cold phosphate buffer saline (pH 7.4) to remove contents and weighed. The total colon tissues homogenized with ice-cold phosphate buffered saline, pH 7.4. Buffer volume to be used for homogenization was twice the weight of tissue. All the samples were stored below −70° C. until bioanalysis. Total colon tissue homogenate volume was three times. Plasma and total colon tissue samples were quantified by LC-MS/MS method (LLOQ in plasma and total colon tissue=0.5 ng/mL).

Naïve CD4+ T cells = test: (g) T cell proliferation; assay type: cell-based; conditions: Homo sapiens, assay (g), read-out: IC50 for inhibition of T cell proliferation
Procedure: PBMCs from healthy subjects are separated from whole blood using a density gradient (Lymphoprep, Axis-Shield Healthcare). The lymphocyte fraction is first enriched for CD4+ T cells by negative magnetic cell sorting as per the manufacturer's instructions (Miltenyi Biotec 130-091-155). Naïve CD4+ T cells are then separated using positive magnetic selection of CD45RA+ cells using microbeads as per the manufacturer's instructions (130-045-901). Cells are plated at 2×10^5 cells per well in 100 μL RPMI/10% FBS on 96 well flat bottomed plate (Corning Costar). 25 μL of test compound are diluted to the appropriate concentration (8× final conc.) in normal medium and added to duplicate wells on the plate to achieve a dose response range of 0.03 ng/mL-250 ng/mL. DMSO is added as a negative control. Plates are allowed to pre-incubate for 2 hours before stimulation with 1 μg/mL anti-CD3 (OKT3; eBioscience). After 72 h, the medium in each well is replaced with 150 μL of fresh medium containing 10 μM BrdU (Roche). […] The reaction is stopped by addition of 50 μL of 1 M H2SO4, and read for absorbance at 450 nm on a plate reader (Varioskan® Flash, ThermoFisher Scientific). The IC50 is determined from the dose response curve.

CYP3A4 = CYP3A4 (Homo sapiens (Human), UniProt P08684); test: CYP450 time-dependent inhibition, CYP3A4; assay type: in vitro ADME
CYP3A4, sequence (P08684 whole entry): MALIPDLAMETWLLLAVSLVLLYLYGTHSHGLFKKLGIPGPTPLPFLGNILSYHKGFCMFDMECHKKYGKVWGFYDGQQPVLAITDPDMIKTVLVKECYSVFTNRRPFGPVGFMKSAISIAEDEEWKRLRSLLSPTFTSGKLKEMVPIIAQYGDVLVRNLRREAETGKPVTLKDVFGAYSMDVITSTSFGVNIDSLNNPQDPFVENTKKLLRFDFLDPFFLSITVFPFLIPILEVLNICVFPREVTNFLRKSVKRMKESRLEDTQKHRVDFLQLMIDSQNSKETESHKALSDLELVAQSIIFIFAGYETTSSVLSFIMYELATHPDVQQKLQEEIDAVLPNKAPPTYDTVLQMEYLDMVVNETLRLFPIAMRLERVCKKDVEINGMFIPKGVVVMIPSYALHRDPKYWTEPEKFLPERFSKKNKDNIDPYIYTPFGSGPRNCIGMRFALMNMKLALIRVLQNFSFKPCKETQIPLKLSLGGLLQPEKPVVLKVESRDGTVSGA
Procedure: CYP450 time-dependent inhibition (TDI) assays were performed with test compound at six test concentrations, 0.062 μM to 15 μM (n=2). The test compounds was pre-incubated for 30 minutes with pooled human hepatic microsomes in 0.1 M Tris buffer, pH 7.4, at 37° C. in the presence of cofactor NADPH. A parallel series of incubations (n=2) were prepared with no pre-incubation. Probe substrates were then added (with additional cofactor) and further incubated for the times specified. Concentrations of probe substrates used in the incubations have been optimised to maintain first order reaction conditions.
Reactions were terminated with acetonitrile containing analytical internal standard (carbamazepine), samples then centrifuged to remove microsomal protein and analysed using optimised LC/MS-MS conditions. The MS data were normalised to internal standard and compared to the appropriate solvent controls to determine the amount of metabolite formed from the probe substrate relative to the “uninhibited” controls. The results are quoted as % inhibition.
Variation in probe turnover between plate wells means that inhibition values recorded below 10-15% may not be significant.

[2] = male, Wistar, colon, po, rat, 5 mg/kg p.o., read-out: Mean concentration, Colon
[3] = male, Wistar, plasma, po, rat, 5 mg/kg p.o., read-out: Mean concentration, Plasma
[4] = male, Wistar, plasma, Rat, 0.25 mg/kg intravenous
[5] = male, Wistar, po, Rat, 5 mg/kg p.o., Plasma
[6] = male, Wistar, po, Rat, 5 mg/kg p.o., Total colon

C#Cc1cc(Nc2nccc(Oc3ccc(NC(=O)Nc4cc(C(C)(C)C)nn4-c4ccc(C)cc4)c4ccccc34)n2)cc(C(=O)NCCOCCOCCOC)c1 [Example 2, 3-((4-((4-(3-(3-(tert-Butyl)-1-(p-tolyl)-1H-pyrazol-5-yl)ureido)naphthalen-1-yl)oxy)pyrimidin-2-yl)amino)-5-ethynyl-N-(2-(2-(2-methoxyethoxy)ethoxy)ethyl)-benzamide]
IC50 (d-U937 cells; read-out: IC50 for Inhibition of Cytokine Release, IL-8): 0.5 nM | IC50 (d-U937 cells; read-out: IC50 for Inhibition of Cytokine Release, TNFα): 0.5 nM | Fpo ([1]; Rat, 5 mg/kg p.o., Plasma): 0.04% | concentration at 1 h [1, 2]: 1.9 ng/g | concentration at 2 h [1, 2]: 4 ng/g | concentration at 4 h [1, 2]: 339 ng/g | concentration at 6 h [1, 2]: 1860 ng/g | concentration at 8 h [1, 2]: 2000 ng/g | concentration at 12 h [1, 2]: 597 ng/g | concentration at 24 h [1, 2]: 53.9 ng/g | concentration at 0.5 h [1, 2]: 3.3 ng/g | concentration at 1 h [1, 3]: 0.9 ng/mL | concentration at 2 h [1, 3]: 0.6 ng/mL | concentration at 4 h [1, 3]: 2.7 ng/mL | concentration at 6 h [1, 3]: 1.7 ng/mL | concentration at 8 h [1, 3]: 0.6 ng/mL | concentration at 12 h [1, 3]: 0.7 ng/mL | concentration at 24 h [1, 3]: 1.8 ng/mL | concentration at 0.5 h [1, 3]: 0.8 ng/mL | AUC(0-inf) [1, 4]: 0.691 µg·h/mL | AUC(0-t) [1, 4]: 0.682 µg·h/mL | C0 [1, 4]: 5360 ng/mL | Vd [1, 4]: 0.3 L/kg | clearance [1, 4]: 0.378 L/h/kg | half-life [1, 4]: 2.2 h | AUC(0-t) [1, 5]: 0.0048 µg·h/mL | Cmax [1, 5]: 2.7 ng/mL | Tmax [1, 5]: 4 h | AUC(0-inf) [1, 6]: 15.8 µg·h/mL | AUC(0-t) [1, 6]: 15.5 µg·h/mL | Cmax [1, 6]: 2000 ng/mL | Tmax [1, 6]: 8 h | Mean concentration, Colon ([1]; rat, 5 mg/kg p.o., Pre-dose): 0.0 ng/g | Mean concentration, Plasma ([1]; rat, 5 mg/kg p.o., Pre-dose): 0 µg/mL | IC50 (Naïve CD4+ T cells): 2.7 nM | IC50 (CYP3A4; CYP3A4, 0 min preincubation): > 15000 nM | IC50 (CYP3A4; CYP3A4, 30 min preincubation): 7700 nM | inhibition at 0 min, 15 µM (CYP3A4; human, pooled human liver microsomes, pH 7.4, CYP3A4, 0 min preincubation, 15 μM, read-out: 15 μM % Inh): 2% | inhibition at 30 min, 15 µM (CYP3A4; human, pooled human liver microsomes, pH 7.4, CYP3A4, 30 min preincubation, 15 μM, read-out: 15 μM % Inh): 52%
